# Data from US20250134895A1, “METHODS AND COMPOSITIONS FOR TREATING ALPHA-SYNUCLEIN-MEDIATED NEURODEGENERATION” (UNIVERSITY HEALTH NETWORK, priority 2021, published 2025).
# Tests used:
# α-synuclein oligomers [1] = target: T1, α-synuclein oligomers (Homo sapiens, UniProt P37840); experiment: Venus YFP protein-fragment complementation assay in rat primary cortical neurons; assay type: cell-based; conditions: 72 hours; for YFP fluorescence compared with vehicle control: 10 μM
# α-synuclein oligomers [2] = target: T1, α-synuclein oligomers; experiment: Gaussia luciferase protein-fragment complementation cell assay of α-synuclein oligomers in H4 neuroglioma cells; assay type: cell-based; design: full-length human α-synuclein fused to the N-terminal fragment of Gaussia princeps luciferase (syn-luc1); full-length human α-synuclein fused to the C-terminal fragment of Gaussia princeps luciferase (syn-luc2); expressed in transfected cells; host or cells: H4 neuroglioma cells (ATCC, HTB-148), transient co-transfection; conditions: for α-syn oligomers as measured by luciferase activity / decrease in luciferase activity compared with vehicle alone: 1 μM or 10 μM; for α-syn oligomers as measured by luciferase activity: Example 9; for decrease in luciferase activity compared with vehicle alone: 24 hours of treatment
# Protocol: (§1) For controls in this assay, vehicle (i.e., DMSO), rapamycin, and bafilomycin A were used. Rapamycin, or sirolimus, is a small molecule that activates autophagy by inhibiting mTOR (mammalian target of rapamycin). […] To test this possibility, cells expressing α-synuclein were treated with each of the compounds and a cell permeable, resazurin-based assay was used to test for cell viability.
# (§2) H4 neuroglioma cells (ATCC, HTB-148) were maintained in Dulbecco's Modified Eagle Medium plus high glucose, L-glutamine, and sodium pyruvate (ThermoFisher, 11995-065) with 10% heat-inactivated fetal bovine serum (ThermoFisher, 16140071) and 1% antibiotic-antimycotic cocktail (ThermoFisher, 15240062) at 37° C. and 5% CO2. DNA expression constructs encoding for full-length human α-synuclein fused to the N-terminal fragment of Gaussia princeps luciferase (syn-luc1), full-length human α-synuclein fused to the C-terminal fragment of Gaussia princeps luciferase (syn-luc2), and full-length Gaussia princeps luciferase were kindly provided by Dr. Pamela McLean, Mayo Clinic Jacksonville.^33 Cells were transiently co-transfected with syn-luc1 and syn-luc2 or transfected with luciferase alone using Superfect transfection reagent (Qiagen, 301305) according to the manufacturer's instructions. Twenty-four hours after transfection, cells were plated on a 96-well microplate at 60,000 cells per well. Twenty-four hours after plating, cells were treated with drugs or vehicle control. Following 24 hours of treatment, cells were washed 1 time with PBS and bioluminescence was measured using an automated CLARIOstar plate reader (Mandel, 430-0505). Cell permeable, native coelenterazine was used as the Gaussia luciferase substrate. Lyophilized coelenterazine (Nanolight, 303-500) was reconstituted in NanoFuel Solvent (Nanolight, 399-1), then diluted in PBS to 16.6 μg/mL, and dispensed per well to a final concentration of 20 μM). The bioluminescent signal generated by the luciferase enzyme was assessed at 470 nm over 5 seconds. Raw luminescence units were normalized to the DMSO vehicle control of each 96-well microplate. To assess cell viability, H4 neuroglioma cells were prepared and treated as described above and, 1 hour prior to viability analysis, cells were treated with PrestoBlue viability reagent (ThermoFisher, A13261) according to the manufacturer's instructions. Fluorescence was automatically measured using a CLARIOstar plate reader (Mandel, 430-0505) and then normalized to the fluorescence measure of the DMSO vehicle control.
# We used a bioluminescent protein-fragment complementation assay in which human H4 neuroglioma cells co-express human α-synuclein tagged with the N- or C-terminal half of Gaussia princeps luciferase (FIG. 12). Reconstitution of a complete and active luciferase molecule from the fragments occurs upon α-synuclein oligomerization, and so luminescence provides an indirect measure of α-synuclein oligomer levels. H4 neuroglioma cells were co-transfected with α-syn luciferase fragments, and constructs were plated into a 96-well plate and treated with either 1 μM or 10 μM of each of the 19 drug compounds.
# [3] = system: full-length Gaussia princeps luciferase; experiment: Activity of full-length Gaussia luciferase alone in H4 cells; assay type: cell-based
# Protocol: as §1, §2
# H4 neuroglioma cells = conditions: for reduced cell survival: human, 24 h
# Protocol: as §1, §2
# [4] = system: transgenic A30P α-synuclein C. elegans; experiment: Coiler score and locomotion of C. elegans expressing A30P α-synuclein in dopaminergic neurons; assay type: in vivo, Caenorhabditis elegans; conditions: for reduction in coiling compared with vehicle alone (decrease): 100 μM of drug, 3 days on drug plates
# Protocol: Using high-resolution, multi-worm tracking with custom image processing, methods were developed for semi-automated and blinded scoring of circularity for a population of simultaneously recorded animals (n=10 per recording). A coiler score was determined for the population tested by first calculating the circularity value for each animal in each frame of video and then calculating the proportion of circularity values >0.6. […] The coiler phenotype is an abnormal motor behaviour previously reported for several unc C. elegans strains with mutations affecting neuronal function.
# Animals were synchronized by isolating eggs using alkaline hypochlorite treatment and hatching overnight. Larvae were plated onto NGM agar plates with OP50 and grown for 4 days before recording locomotion. For individual C. elegans recordings, a single adult animal was randomly picked, washed for 1 to 2 minutes in M9 buffer, and then transferred to a fresh NGM plate without food for imaging. Video images were acquired (2 frames per second) for up to 6 minutes using a sCMOS camera (pco.edge, PCO) mounted on a stereomicroscope (Olympus MVX10 MacroView) controlled using the μManager software.^55 A total of 40 individual animals were imaged for each strain. For C. elegans population recordings, ten adult animals were randomly removed using an eyelash pick, washed for 1 minute in M9 buffer, and then transferred to a fresh NGM plate without food, with a ring of copper sulfate solution (150 mM) around the area of recording (a chemorepellent to keep the animals in the recording frame). Exploratory locomotion was recorded using a CCD camera (GX1920, Allied Vision) which was attached to a dissecting stereomicroscope (Leica M165C, 1.0× PlanApo lens). A Labview program captured video (2 frames per second) at 1936×1456 resolution. Using ImageJ, the displacement, perimeter, and area of each animal was calculated, from which a circularity value was computed using the following formula: circularity=4π(A/P^2), where A is the area of the animal's body and P is the perimeter of the animal's body (both expressed in arbitrary pixel units). […] Using MATLAB (Mathworks), various behavioural metrics including the coiler score were calculated, which is the percentage of frames with a circularity value >0.6. Speed was automatically computed from the ImageJ based WrmTrk plugin as the distance travelled by each animal (in pixels) over the amount of time that it was tracked (in seconds).56 Average speed was determined by calculating the weighted average of each tracked animal's speed within a single population of animals. On the day of the recording for dopamine or raclopride treatment, adult animals were washed for 1 minute in M9 buffer, treated in a solution containing either drug for 1 minute, and then placed onto fresh NGM plates without food, with a copper sulfate solution ring around the area of recording. […] Drug plates were prepared by adding each drug to LB medium with OP50 before spreading onto fresh NGM plates. The solvent used to dissolve each drug was used as vehicle control for the drug treatment experiments (M9 buffer for dopamine, distilled water for raclopride, DMSO for all other drugs).
# After 72 hours of drug treatment, animals were randomly picked, washed, and recorded. A total of ten worms were recorded per population, and twelve populations were recorded for each of the four treatment groups. Locomotion was recorded for each population over a total of 1800 frames over three minutes. The animal's movement speed, area, and perimeter were automatically analyzed as previously described. Coiler score was calculated automatically using a ratio of the animal's area to perimeter, where a higher coiler score would represent a greater degree of α-synuclein-induced dopaminergic neuron dysfunction in vivo.
# control GFP C. elegans = experiment: Coiler score and locomotion of control GFP C. elegans; assay type: in vivo, Caenorhabditis elegans; conditions: 1 mM, animals not expressing α-synuclein
# Protocol: Animals were synchronized by isolating eggs using alkaline hypochlorite treatment and hatching overnight. Larvae were plated onto NGM agar plates with OP50 and grown for 4 days before recording locomotion. For individual C. elegans recordings, a single adult animal was randomly picked, washed for 1 to 2 minutes in M9 buffer, and then transferred to a fresh NGM plate without food for imaging. Video images were acquired (2 frames per second) for up to 6 minutes using a sCMOS camera (pco.edge, PCO) mounted on a stereomicroscope (Olympus MVX10 MacroView) controlled using the μManager software.^55 A total of 40 individual animals were imaged for each strain. For C. elegans population recordings, ten adult animals were randomly removed using an eyelash pick, washed for 1 minute in M9 buffer, and then transferred to a fresh NGM plate without food, with a ring of copper sulfate solution (150 mM) around the area of recording (a chemorepellent to keep the animals in the recording frame). Exploratory locomotion was recorded using a CCD camera (GX1920, Allied Vision) which was attached to a dissecting stereomicroscope (Leica M165C, 1.0× PlanApo lens). […] Using ImageJ, the displacement, perimeter, and area of each animal was calculated, from which a circularity value was computed using the following formula: circularity=4π(A/P^2), where A is the area of the animal's body and P is the perimeter of the animal's body (both expressed in arbitrary pixel units). […] Using MATLAB (Mathworks), various behavioural metrics including the coiler score were calculated, which is the percentage of frames with a circularity value >0.6. Speed was automatically computed from the ImageJ based WrmTrk plugin as the distance travelled by each animal (in pixels) over the amount of time that it was tracked (in seconds).56 Average speed was determined by calculating the weighted average of each tracked animal's speed within a single population of animals. […]
# C. elegans were grown and maintained as previously described (Examples 1-6). […] After 72 hours of drug treatment, animals were randomly picked, washed, and recorded. […]
smiles,measurement,setting,value
CCCC(=O)Nc1ccc(OCC(O)CNC(C)C)c(C(C)=O)c1 (centres unmarked) [Acebutolol],YFP fluorescence compared with vehicle control,α-synuclein oligomers [1],No significant differences
same,α-syn oligomers as measured by luciferase activity,α-synuclein oligomers [2],significant decrease
same,changes in the activity of full-length Gaussia luciferase alone,"[3]; 10 μM, FIG. 14",No statistically significant changes
CC(=O)Nc1ccc(O)cc1 [Acetaminophen],changes in viability,H4 neuroglioma cells,No statistically significant changes
same,decrease in luciferase activity compared with vehicle alone,α-synuclein oligomers [2],14%
same,changes in the activity of full-length Gaussia luciferase alone,"[3]; Example 5, FIG. 5c",No statistically significant changes
same,reduction in coiling compared with vehicle alone (decrease),[4],32%
"CO/C1=C\C(C)=C\[C@@H](C)[C@@H](O)[C@@H](C)C/C(C)=C/C=C/[C@H](OC)[C@@H]([C@@H](C)[C@@H](O)[C@H](C)[C@@]2(O)C[C@@H](O)[C@H](C)[C@@H](C(C)C)O2)OC1=O [Bafilomycin A1, bafilomycin A1]",change in α-synuclein oligomer levels (active controls),"α-synuclein oligomers [2]; rapamycin 2 μM, bafilomycin A1 50 nM",increase
CN(C)CCCOc1nn(Cc2ccccc2)c2ccccc12 [Benzydamine],α-syn oligomers as measured by luciferase activity,α-synuclein oligomers [2],significant decrease
Cn1c(=O)c2c(ncn2C)n(C)c1=O [Caffeine],decrease in luciferase activity compared with vehicle alone,α-synuclein oligomers [2],16%
same,changes in the activity of full-length Gaussia luciferase alone,"[3]; Example 5, FIG. 5c",No statistically significant changes
same,reduction in coiling compared with vehicle alone (decrease),[4],37%
Oc1c(I)cc(Cl)c2cccnc12 [Clioquinol],α-syn oligomers as measured by luciferase activity,α-synuclein oligomers [2],significant decrease
"NCCc1ccc(O)c(O)c1 [Dopamine, dopamine]",coiling with exogenous dopamine,"[4]; increasing concentrations, 1 minute treatment",decreased with treatment in a dose-dependent manner
COc1cc([C@@H]2c3cc4c(cc3[C@@H](O[C@@H]3O[C@@H]5CO[C@@H](C)O[C@H]5[C@H](O)[C@H]3O)[C@H]3COC(=O)[C@H]23)OCO4)cc(OC)c1O [Etoposide],reduced cell survival,H4 neuroglioma cells,> 15%
same,decrease in luciferase activity compared with vehicle alone,α-synuclein oligomers [2],30%
Nc1ccn([C@@H]2CS[C@H](CO)O2)c(=O)n1 [Lamivudine],YFP fluorescence compared with vehicle control,α-synuclein oligomers [1],No significant differences
same,α-syn oligomers as measured by luciferase activity,α-synuclein oligomers [2],significant decrease
same,changes in the activity of full-length Gaussia luciferase alone,"[3]; 10 μM, FIG. 14",No statistically significant changes
Sc1ncnc2nc[nH]c12 [Mercaptopurine],changes in viability,H4 neuroglioma cells,No statistically significant changes
same,decrease in luciferase activity compared with vehicle alone,α-synuclein oligomers [2],17%
same,changes in the activity of full-length Gaussia luciferase alone,"[3]; Example 5, FIG. 5c",No statistically significant changes
same,effect on coiling / coiler score,"[4]; 100 μM, 72 hr, vs DMSO vehicle",no effect
NC(=O)C[S+]([O-])C(c1ccccc1)c1ccccc1 (centres unmarked) [Modafinil],reduced cell viability (decrease),"H4 neuroglioma cells; 1-20 μM, Example 9",32%
same,concentration with significant loss in cell viability,"H4 neuroglioma cells; drugs 1-20 μM, FIG. 13",< 5 µM
same,α-syn oligomers as measured by luciferase activity,α-synuclein oligomers [2],significant decrease
CN1C(C(=O)Nc2ccccn2)=C(O)c2ccccc2S1(=O)=O [Piroxicam],reduced cell survival,H4 neuroglioma cells,> 15%
same,decrease in luciferase activity compared with vehicle alone,α-synuclein oligomers [2],19%
"CCN1CCC[C@H]1CNC(=O)c1c(O)c(Cl)cc(Cl)c1OC [Raclopride, raclopride]",coiling after D2 receptor blockade,control GFP C. elegans,recapitulated the coiling behaviour
CO[C@H]1C[C@@H]2CC[C@@H](C)[C@@](O)(O2)C(=O)C(=O)N2CCCC[C@H]2C(=O)O[C@H]([C@H](C)C[C@@H]2CC[C@@H](O)[C@H](OC)C2)CC(=O)[C@H](C)/C=C(\C)[C@@H](O)[C@@H](OC)C(=O)[C@H](C)C[C@H](C)/C=C/C=C/C=C/1C [Rapamycin],changes in viability,H4 neuroglioma cells,No statistically significant changes
same,decrease in fluorescence compared with vehicle alone,"α-synuclein oligomers [1]; losartan 100 μM, rapamycin 50 nM, rifabutin 20 μM",36%
same,reduction in coiling compared with vehicle alone (decrease),[4],30%
Cn1c(=O)c2[nH]cnc2n(C)c1=O [Theophylline],decrease in luciferase activity compared with vehicle alone,α-synuclein oligomers [2],8%
CC[C@]1(O)C[C@H]2CN(CCc3c([nH]c4ccccc34)[C@@](C(=O)OC)(c3cc4c(cc3OC)N(C=O)[C@H]3[C@@](O)(C(=O)OC)[C@H](OC(C)=O)[C@]5(CC)C=CCN6CC[C@]43[C@@H]65)C2)C1 [Vincristine],reduced cell survival,H4 neuroglioma cells,> 15%
same,decrease in luciferase activity compared with vehicle alone,α-synuclein oligomers [2],33%
